{
  "source": "patent US20210330756A1",
  "about": "“Acetylation of Miro1” (University of South Carolina, priority 2020, published 2021)",
  "key": {"[1]": {"tested_on": "adult dorsal root ganglion (DRG) neurons", "experiment": "Neurite length of dissociated adult DRG neurons cultured on laminin", "assay_type": "cell-based, rat", "details": "10 μM, 1 h", "description": "HDAC6 inhibition increases growth cone size of sensory axons. Given our previous work showing that HDAC6 inhibition allows axons to grow on MAG and CSPG substrates (Rivieccio et al., 2009; Butler et al., 2010), we asked how inhibition of HDAC6 alters axon growth in cultures of adult dorsal root ganglion (DRG) neurons. […] (A) Quantification of neurite length for dissociated DRGs cultured on laminin with addition of HDAC6 inhibitor TubA (10 μm) versus vehicle control (DMSO) over 1 h is shown as average fold-change relative to vehicle±SEM (n≥95 neurons across three independent experiments; NS by one-way ANOVA with Bonferroni post hoc). (B and C) show representative DIC images of distal axons from DRG neurons cultured as in A are shown (B). 1-h TubA treatment appears to increase growth cone size. Analyses of growth cone area across multiple experiments show a significant increase in area after TubA treatment (C). Values are average fold-change±SEM (n≥26 neurons over at least three culture preparations; ***, P≤0.005 by one-way ANOVA with Bonferroni post hoc; scale bar=5 μm; 40×/1.3 NA objective used). […] Prominent HDAC6 signals are seen in distal axons and growth cones (arrows) regardless of TubA exposure. […]\nNF-stained cultures were used for neurite growth analyses. […] The growth cone area was measured using ImageJ software from these annotated DIC images. […]"}, "Ac-histone H4": {"tested_on": "Ac-histone H4", "experiment": "Immunoblotting for Ac-histone H4 in adult DRG neurons (HDAC specificity)", "assay_type": "cell-based, rat", "description": "We tested for this specificity in the adult DRG neurons from above by immunoblotting. […] (A) Number of mitochondria in growth cones after exposing DRG cultures to 10 μM TubA versus vehicle (control) for 1 h is shown as average fold-change in number of mitochondria per growth cone±SEM (n=13 axons across three culture preparations; *, P≤0.05 by one-way ANOVA with Bonferroni post hoc analysis). (B) Representative EMs of Remak bundles (arrowheads) in naive Sciatic nerve and nerves after 2 h vehicle (DMSO) or TubA injection are shown. Arrows indicate mitochondria in the unmyelinated axons. Note that a Schwann cell nucleus (asterisk) is seen in the Remak bundle for DMSO image but not the other two micrographs (scale bar=3 μm). (C) Quantification of number of mitochondria per unmyelinated axon from EM images as in B is shown as average±SEM (n≥5; *****, P≤0.0001 by one-way ANOVA with Bonferroni post hoc analysis). (D-F) Quantification for indicated parameters for mitochondrial transport in sciatic nerve in vivo using tetramethylrhodamine, ethyl ester, perchlorate to visualize mitochondria is shown.\nFor immunoblotting, protein lysates or immunoprecipitates were denatured by boiling in Laemmli sample buffer, fractionated by SDS-PAGE, and transferred to nitrocellulose membranes. Blots were blocked for 1 h at room temperature with 5% nonfat dry milk in TBS with 0.1% Tween 20 (TBST). Primary antibodies diluted in 5% BSA in TBST were added to the membranes and incubated overnight at 4° C. with rocking. Primary antibodies consisted of rabbit anti-Myc (1:2,000; Cell Signaling; 71D10), rabbit anti-RHOT1 antibody (1:1,000; Aviva Systems Biology; ARP44817 P050), rabbit anti-HDAC6 antibody (1:2,000; Cell Signaling; 7558), rabbit anti-ERK1 (1:5,000; Abcam; ab32537), and affinity-purified custom rabbit anti-Miro1-AcK105 (1:2,500; Twiss laboratory, see above) antibodies. For the anti-Miro1-AcK105 antibody, preimmune and test-bleed sera were used at 1:1,000 dilutions to initially evaluate for specificity. After washing in TBST, blots were incubated with HRP-conjugated anti-rabbit IgG antibodies (1:5,000; Jackson Immunoresearch) diluted in blocking buffer for 1 h at room temperature. Signals were detected using ECL Prime (GE Healthcare) after extensive washing."}},
  "data": [
    {"smiles": "CN1CCc2c(c3ccccc3n2Cc2ccc(C(=O)NO)cc2)C1", "note": "[TubA, tubastatin]", "values": [
      {"measurement": "neurite length vs vehicle", "setting": "[1]", "result": "did not significantly affect neurite length"},
      {"measurement": "Ac-histone H4 levels", "setting": "Ac-histone H4; 1 μM", "result": "no change in Ac-histone H4 levels"},
      {"measurement": "Ac-histone H4 levels", "setting": "Ac-histone H4; 10 μM", "result": "no change in Ac-histone H4 levels"},
      {"measurement": "Ac-histone H4 levels", "setting": "Ac-histone H4; 100 μM", "result": "only modest increase in Ac-histone H4"}
    ]}
  ]
}
